Data as given in PMC12596928 (Chembiochem, 2025).
Where “and” joins values, the source holds several entries; their conditions need not be identical. Identical values can stand only once. Counter-ions that a name gives are not always drawn. Like-named read-outs stand apart in the source and are kept apart here.

How the values were obtained:
SdeA [1] = target: T1, SdeA (Legionella pneumophila subsp. pneumophila, UniProt Q5ZTK4); type: biochemical
SdeA [2] = target: T1, SdeA; experiment: biochemical
SdeA [3] = target: T1, SdeA; experiment: biochemical; remark: listed apart in the source

T1 sequence (Q5ZTK4 231-1190 limits assumed): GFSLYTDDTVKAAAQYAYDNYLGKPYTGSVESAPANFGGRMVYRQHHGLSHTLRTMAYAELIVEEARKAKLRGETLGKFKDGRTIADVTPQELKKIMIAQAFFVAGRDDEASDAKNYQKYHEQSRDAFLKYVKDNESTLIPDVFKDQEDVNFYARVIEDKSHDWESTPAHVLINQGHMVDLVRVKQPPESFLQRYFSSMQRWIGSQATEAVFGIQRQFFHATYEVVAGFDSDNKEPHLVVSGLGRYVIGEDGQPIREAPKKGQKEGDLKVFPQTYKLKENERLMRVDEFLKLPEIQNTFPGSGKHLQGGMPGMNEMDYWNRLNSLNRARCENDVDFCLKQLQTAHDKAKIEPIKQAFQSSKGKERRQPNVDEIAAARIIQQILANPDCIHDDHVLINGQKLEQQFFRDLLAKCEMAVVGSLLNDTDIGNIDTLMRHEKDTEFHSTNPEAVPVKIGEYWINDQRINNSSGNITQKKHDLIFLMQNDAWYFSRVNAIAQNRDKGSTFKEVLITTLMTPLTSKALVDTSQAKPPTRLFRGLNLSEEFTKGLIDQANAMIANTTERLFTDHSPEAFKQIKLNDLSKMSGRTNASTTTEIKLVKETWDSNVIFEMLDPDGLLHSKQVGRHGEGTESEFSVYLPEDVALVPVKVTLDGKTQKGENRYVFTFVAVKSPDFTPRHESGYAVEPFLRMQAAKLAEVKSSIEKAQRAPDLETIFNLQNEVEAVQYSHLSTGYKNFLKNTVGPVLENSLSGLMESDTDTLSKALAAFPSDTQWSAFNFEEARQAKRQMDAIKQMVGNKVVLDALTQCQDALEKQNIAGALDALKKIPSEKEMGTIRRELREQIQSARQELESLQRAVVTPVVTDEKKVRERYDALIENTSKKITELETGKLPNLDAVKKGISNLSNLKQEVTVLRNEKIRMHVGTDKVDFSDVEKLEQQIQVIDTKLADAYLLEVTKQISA

SMILES	inhibition at 5 µM (SdeA [3]) [%]	IC50 (SdeA [2]; read-out: IC50)	further results
CCCCCCCC(=O)ON1C(=O)CCC1=O [N‐succinimidyl octanoate]			inhibition of SdeA (SdeA [1]): full inhibition
[Cl-].[Cl-].[Mg+2] [MgCl2]			IC50 (μM) (SdeA [2]): do not show any inhibitory effect and n.i
O=c1cc2c(=O)oc3cc(O)c(O)oc3c2c(O)c1O [Galloflavin potassium salt]	92.4		
[Cl][Ni][Cl] [NiCl2]		67.1 µM	
[Cl][Cu][Cl] [CuCl2]		12.3 µM	
O=c1c(O)c(-c2ccc(O)c(O)c2)oc2cc(O)cc(O)c12 [Quercetin dihydrate]	52.2		
[Cl-].[Cl-].[Zn+2] [ZnCl2]		0.46 µM and 0.3 µM	fold difference in IC50 between zinc and copper (SdeA [2]): 40 fold
CC(=O)OCC1=C(C(=O)O)N2C(=O)[C@@H](NC(=O)CCC[C@@H](N)C(=O)O)[C@H]2SC1 [Cephalosporin C zinc salt, cephalosporin C Zn^2+ salt]	74.6		Inhibition (SdeA [3]): 75%; IC50 (SdeA [2]; IC50): 0.221 µM and 0.2 µM
[Cl][Mn][Cl] [MnCl2]			IC50 (μM) (SdeA [2]): do not show any inhibitory effect and n.i
O=[N+]([O-])[O-].O=[N+]([O-])[O-].[Pb+2] [Pb(NO3)2]		43.6 µM	
NC(=O)c1cccc(N)c1 [3‐AB, 3‐aminobenzamide]			behaviour as potential positive control (SdeA [1]): auto‐fluorescent
O=C(O)C1=CC(=C(c2ccc(O)c(C(=O)O)c2)c2ccc(O)c(C(=O)O)c2)C=CC1=O [Aurintricarboxylic acid]	96.3		
O=[N+]([O-])[O-].O=[N+]([O-])[O-].[Cd+2] [Cd(NO3)2]		29.8 µM	
N#CC(C#N)=C(N)/C(C#N)=C/c1cc(O)c(O)c(O)c1 [Tyrphostin A51]	98.2		
O=c1cc(-c2ccccc2)oc2c(O)c(O)ccc12 [Dihydroxyflavone]	96.5		
